{
  "source": "patent US20120220658A1",
  "about": "“Method for Treating Sepsis or Septic Shock” (University of Medicine and Dentistry of New Jersey, priority 2009, published 2012)",
  "key": {"CLP rats [1]": {"system": "CLP rats", "assay": "Survival after CLP-induced sepsis, intravenous LXA4", "format": "in vivo", "conditions": "8 μg/kg i.v., single dose 1 hour after CLP; monitored every 24 hours for 8 days", "method": "(§1) Surgery. Cecal ligation and perforation (CLP) was performed on male Sprague-Dawley rats (250-350 g) according to known methods (Chaudry, et al. (1979) Surgery 85:205-21). The CLP model of sepsis is an established, clinically relevant model of sepsis (Rittirsch et al., (2009) Nature Protocol 4(1):31-36). Animals were fasted overnight before surgery. On the day of surgery, rats were anesthetized with Isofluorane (+oxygen). A 2-cm-long midline incision was made in the abdomen to expose the cecum. Fecal matter was massaged into the cecum. The distal two-thirds of the cecum was ligated with 4.0 surgical silk. Using an 18-gauge needle, the cecum was punctured twice. Some fecal matter was massaged out of the cecum through these holes. The cecum was placed back into the abdomen, which was then closed. Saline (2 ml/100 g; s.c.) was injected to replace any fluids lost during surgery. Five hours after surgery, the rats were given either LXA4 (40 μg/kg rat; i.p.) or saline vehicle. This concentration of LXA4 was derived from published in vivo work in rodents (Bannenberg et al., (2004) Br. J. Pharmacol. 143:43-52). […]\nTo further examine the use of LXA4 in the treatment of sepsis, the effect intravenous LXA4 administration on survival after CLP-induced sepsis was examined. […] Survival was monitored every 24 hours for 8 days (FIG. 7)."}, "IL-6": {"system": "IL-6", "assay": "Plasma IL-6 level after CLP", "format": "in vivo, male Sprague-Dawley rats", "conditions": "40 μg/kg i.p. 5 h after CLP; 48 hours after CLP; vs saline vehicle", "method": "as §1, with “143:43-52). At the end of 48 hours, rats were anesthetized with pentobarbital (50 mg/kg, i.p.).” for “143:43-52).”\n(§2) Plasma IL-6, MCP-1 and IL-10 Levels. Plasma IL-6, MCP-1 and IL-10 levels were measured using commercially available kits. […]"}, "IL-10": {"system": "IL-10", "assay": "Plasma IL-10 level after CLP", "format": "in vivo, male Sprague-Dawley rats", "conditions": "40 μg/kg i.p. 5 h after CLP; 48 hours after CLP; vs saline vehicle", "method": "as §1, with “143:43-52). At the end of 48 hours, rats were anesthetized with pentobarbital (50 mg/kg, i.p.).” for “143:43-52).”\nas §2"}, "CLP rats [2]": {"system": "CLP rats", "assay": "Survival in cecal ligation and perforation (CLP) model of sepsis, LXA4 i.p.", "format": "in vivo, male Sprague-Dawley rats", "conditions": "40 μg/kg i.p. five hours after CLP surgery; subgroup of rats that lived longer than 48 hours; vs vehicle treated CLP rats", "method": "as §1, with “vehicle.” for “vehicle. This concentration of LXA4 was derived from published in vivo work in rodents (Bannenberg et al., (2004) Br. J. Pharmacol. 143:43-52).”\nIn this study, the effect of LXA4 in the clinically relevant cecal ligation and puncture (CLP) model of sepsis was analyzed. […]\nSurvival. […] As there was a significant change in the slope of the individual survival curves starting at 48 hours, the effects of LXA4 on systemic inflammatory mediator release, bacterial load and peritoneal leukocyte counts 48 hours after CLP sepsis were analyzed."}, "[3]": {"system": "peritoneal leukocytes of CLP rats", "assay": "Peritoneal cell count and differential after CLP", "format": "in vivo, male Sprague-Dawley rats", "conditions": "40 μg/kg i.p. 5 h after CLP; 48 hours after CLP; vs CLP rats given saline", "method": "Surgery. Cecal ligation and perforation (CLP) was performed on male Sprague-Dawley rats (250-350 g) according to known methods (Chaudry, et al. (1979) Surgery 85:205-21). The CLP model of sepsis is an established, clinically relevant model of sepsis (Rittirsch et al., (2009) Nature Protocol 4(1):31-36). Animals were fasted overnight before surgery. On the day of surgery, rats were anesthetized with Isofluorane (+oxygen). A 2-cm-long midline incision was made in the abdomen to expose the cecum. Fecal matter was massaged into the cecum. The distal two-thirds of the cecum was ligated with 4.0 surgical silk. Using an 18-gauge needle, the cecum was punctured twice. Some fecal matter was massaged out of the cecum through these holes. The cecum was placed back into the abdomen, which was then closed. Saline (2 ml/100 g; s.c.) was injected to replace any fluids lost during surgery. Five hours after surgery, the rats were given either LXA4 (40 μg/kg rat; i.p.) or saline vehicle. This concentration of LXA4 was derived from published in vivo work in rodents (Bannenberg et al., (2004) Br. J. Pharmacol. 143:43-52). At the end of 48 hours, rats were anesthetized with pentobarbital (50 mg/kg, i.p.). A midline incision was made and the peritoneal cavity was lavaged with 20 ml of PBS containing 0.38% Na citrate (as anticoagulant).\nTwo hundred μl of lavage fluid was taken immediately for measurement of bacterial load. The rest of the fluid was passed through a […] (diameter) nylon mesh to remove debris and then centrifuged at 110×g for 7 minutes at 4° C. The supernatant was removed and stored at −80° C. for further analyses. Forty ml red blood cell lysis buffer was added to the cell pellet for 10 minutes with gentle inversion before being centrifuged again at 110×g (7 minutes; 4° C.). Cells were resuspended in 1 ml PBS.\nPeritoneal Cell Differential. Peritoneal cells were counted using an automated hemocytometer (Beckman Coulter Counter; Z4) and then cytospun onto superfrost ++ slides. In order to perform cell differentials, DIFQUIK staining was performed according to manufacturer's instructions. […]"}, "[4]": {"system": "bacterial load in CLP rats", "assay": "Bacterial load (CFU) in blood and peritoneal lavage fluid after CLP", "format": "in vivo, male Sprague-Dawley rats", "conditions": "40 μg/kg i.p. 5 h after CLP; 48 hours after CLP; vs saline vehicle", "method": "as §1\nBacterial Load. […] At the end of the incubation period, colony forming units (CFU) were counted.\nBacterial Load. Bacterial load in blood and peritoneal lavage fluid was measured after plating of serially diluted samples on tryptic soy agar plates. […]"}, "MCP-1": {"system": "MCP-1", "assay": "Plasma MCP-1 level after CLP", "format": "in vivo, male Sprague-Dawley rats", "conditions": "40 μg/kg i.p. 5 h after CLP; 48 hours after CLP; vs saline vehicle", "method": "as §1\nPlasma IL-6, MCP-1 and IL-10 Levels. Plasma IL-6, MCP-1 and IL-10 levels were measured using commercially available kits.\nPlasma MCP-1. […] Accordingly, plasma MCP-1 was measured as another marker of systemic inflammatory response. […]"}},
  "note": "Entries after “also recorded” stand apart in the source; their conditions may differ.",
  "data": [
    {"smiles": "CCCCC[C@H](O)/C=C/C=C\\C=C\\C=C\\[C@@H](O)[C@@H](O)CCCC(=O)O", "note": "[LXA4, 5S,6R,15S-trihydroxy-7E,9E,11Z,13E-Eicosatetraenoic acid]", "values": [
      {"measurement": "survival (Kaplan-Meier, log rank test)", "setting": "CLP rats [1]", "value": "significantly increased survival"},
      {"measurement": "plasma IL-6 levels", "setting": "IL-6", "value": "reduced plasma levels of IL-6"},
      {"measurement": "plasma IL-10 levels", "setting": "IL-10", "value": "significantly decreased plasma IL-10 levels"},
      {"measurement": "survival (Kaplan-Meier, log-rank test)", "setting": "CLP rats [2]", "value": "significantly increased survival; also recorded: increased survival rate"},
      {"measurement": "number of monocytes/macrophages in the peritoneal cavity", "setting": "[3]", "value": "increased the number of monocytes/macrophages"},
      {"measurement": "number of neutrophils in the peritoneal cavity", "setting": "[3]", "value": "without affecting the number of neutrophils; also recorded: number of neutrophils remained similar in both groups"},
      {"measurement": "total number of peritoneal cells (leukocytes)", "setting": "[3]", "value": "increased the total number of peritoneal cells; also recorded: increased peritoneal leukocytes further"},
      {"measurement": "bacterial load in the peritoneal cavity (CFU)", "setting": "[4]", "value": "reduced bacterial load in the peritoneal cavity but the reduction did not reach significance"},
      {"measurement": "blood bacterial load (CFU)", "setting": "[4]", "value": "reduces blood bacterial load; also recorded: substantially reduced blood bacterial load"},
      {"measurement": "plasma MCP-1 levels", "setting": "MCP-1", "value": "reduced plasma levels of MCP-1; also recorded: significantly reduced plasma MCP-1 levels"}
    ]}
  ]
}
